Measurements taken from US10369119B2 (priority 2015, dated 2019).
“Also recorded” adds a separate entry of the source.

Tests used:
[1] = molecular target: T1, caspase-3 (Mus musculus, UniProt P70677); assay: biochemical; format: biochemical
T1 construct: Caspases were induced in RAW264.7 by treating cells with 2 μg/ml of PE for 4 hours; endogenous in cells; host or cells: RAW264.7 (lysate after PE treatment)

[2] = molecular target: T2, caspase-6 (Mus musculus, UniProt O08738); assay: biochemical; format: biochemical
T2 construct: Caspases were induced in RAW264.7 by treating cells with 2 μg/ml of PE for 4 hours; endogenous in cells; host or cells: RAW264.7 (lysate after PE treatment)
T2 sequence (O08738 6-162 limits assumed): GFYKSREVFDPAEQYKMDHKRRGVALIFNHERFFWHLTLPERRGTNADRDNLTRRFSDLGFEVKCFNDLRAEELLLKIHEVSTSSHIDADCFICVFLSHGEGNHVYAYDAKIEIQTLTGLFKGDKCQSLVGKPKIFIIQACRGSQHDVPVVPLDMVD
T2 sequence (O08738 176-276 limits assumed): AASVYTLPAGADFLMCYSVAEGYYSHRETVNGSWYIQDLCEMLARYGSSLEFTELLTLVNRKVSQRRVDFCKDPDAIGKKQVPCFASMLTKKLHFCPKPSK

[3] = system: caspase-3/7; format: biochemical, mouse
[4] = system: PE-sensitive HapMap cells (human B-lymphocytes); format: cell-based
[5] = molecular target: T3, caspase-1 (Homo sapiens, UniProt P29466); format: biochemical
T3 construct: purchased BioVision
T3 sequence (P29466 120-297 limits assumed): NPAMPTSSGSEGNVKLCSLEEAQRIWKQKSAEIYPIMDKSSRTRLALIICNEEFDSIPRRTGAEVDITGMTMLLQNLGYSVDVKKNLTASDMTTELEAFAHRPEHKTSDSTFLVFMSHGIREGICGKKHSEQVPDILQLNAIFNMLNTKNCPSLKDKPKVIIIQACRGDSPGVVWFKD
T3 sequence (P29466 317-404 limits assumed): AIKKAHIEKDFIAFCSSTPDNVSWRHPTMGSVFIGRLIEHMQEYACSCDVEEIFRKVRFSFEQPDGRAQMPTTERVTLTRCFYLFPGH

[6] = molecular target: T4, caspase-9 (Homo sapiens, UniProt P55211); format: biochemical
T4 construct: purchased BioVision
T4 sequence (P55211 1-315 limits assumed): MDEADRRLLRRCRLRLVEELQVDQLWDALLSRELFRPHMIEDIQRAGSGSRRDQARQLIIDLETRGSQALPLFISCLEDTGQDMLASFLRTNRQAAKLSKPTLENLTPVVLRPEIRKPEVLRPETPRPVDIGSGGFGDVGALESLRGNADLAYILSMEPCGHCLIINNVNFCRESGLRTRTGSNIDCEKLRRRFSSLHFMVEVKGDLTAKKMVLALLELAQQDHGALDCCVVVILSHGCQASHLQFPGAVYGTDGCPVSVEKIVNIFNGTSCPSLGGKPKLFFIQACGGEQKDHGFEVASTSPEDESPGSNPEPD
T4 sequence (P55211 331-416 limits assumed): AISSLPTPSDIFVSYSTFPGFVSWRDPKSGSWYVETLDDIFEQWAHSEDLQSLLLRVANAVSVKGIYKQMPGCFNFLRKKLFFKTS

[7] = molecular target: T5, caspase-3 (Homo sapiens, UniProt P42574); format: biochemical
T5 construct: purchased BioVision
T5 sequence (P42574 29-175 limits assumed): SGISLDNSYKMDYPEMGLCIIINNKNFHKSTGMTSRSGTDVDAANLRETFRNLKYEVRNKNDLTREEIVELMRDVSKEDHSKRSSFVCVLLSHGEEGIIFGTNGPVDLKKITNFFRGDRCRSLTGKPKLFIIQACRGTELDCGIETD
T5 sequence (P42574 176-277 limits assumed): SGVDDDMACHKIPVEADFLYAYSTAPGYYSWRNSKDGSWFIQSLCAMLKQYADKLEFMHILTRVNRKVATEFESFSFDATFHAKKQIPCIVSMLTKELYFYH

[8] = molecular target: T6, caspase-6 (Homo sapiens, UniProt P55212); format: biochemical
T6 construct: purchased BioVision
T6 sequence (P55212 24-179 limits assumed): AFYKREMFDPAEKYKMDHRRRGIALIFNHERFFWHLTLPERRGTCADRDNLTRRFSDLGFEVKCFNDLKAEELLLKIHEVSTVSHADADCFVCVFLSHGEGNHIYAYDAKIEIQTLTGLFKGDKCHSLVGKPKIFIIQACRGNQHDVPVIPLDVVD
T6 sequence (P55212 194-293 limits assumed): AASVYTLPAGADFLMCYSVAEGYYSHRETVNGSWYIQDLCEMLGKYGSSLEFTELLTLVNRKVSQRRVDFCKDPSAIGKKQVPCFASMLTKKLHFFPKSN

[9] = molecular target: T7, caspase-7 (Homo sapiens, UniProt P55210); format: biochemical
T7 construct: purchased BioVision
T7 sequence (P55210 24-198 limits assumed): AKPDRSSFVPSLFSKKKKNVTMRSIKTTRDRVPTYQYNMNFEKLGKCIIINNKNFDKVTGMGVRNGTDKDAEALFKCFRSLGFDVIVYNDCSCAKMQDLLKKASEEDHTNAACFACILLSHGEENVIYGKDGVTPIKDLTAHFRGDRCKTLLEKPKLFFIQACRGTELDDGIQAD
T7 sequence (P55210 207-303 limits assumed): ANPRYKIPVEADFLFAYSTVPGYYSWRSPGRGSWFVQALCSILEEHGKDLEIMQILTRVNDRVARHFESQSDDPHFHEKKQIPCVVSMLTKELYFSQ

[10] = system: other caspases; format: biochemical, human
[11] = system: LF-PA-mediated cell killing in RAW264.7 cells; format: cell-based, mouse
[12] = molecular target: T8, caspase-1 (Mus musculus, UniProt P29452); format: cell-based
T8 construct: Cathepsin B and caspase-1 activities in total cell lysates were determined; endogenous in cells; host or cells: RAW264.7
T8 sequence (P29452 119-296 limits assumed): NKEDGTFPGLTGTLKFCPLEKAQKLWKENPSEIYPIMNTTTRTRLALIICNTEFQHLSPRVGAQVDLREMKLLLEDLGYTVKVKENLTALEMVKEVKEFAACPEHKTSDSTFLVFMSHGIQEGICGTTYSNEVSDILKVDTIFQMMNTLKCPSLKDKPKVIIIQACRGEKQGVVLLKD
T8 sequence (P29452 315-402 limits assumed): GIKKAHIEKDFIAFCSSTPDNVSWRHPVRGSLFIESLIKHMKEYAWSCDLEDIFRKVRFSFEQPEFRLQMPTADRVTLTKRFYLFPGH

[13] = molecular target: anthrax LF toxin (Bacillus anthracis, UniProt P15917); format: cell-based
anthrax LF toxin, sequence (P15917 34-809 limits assumed): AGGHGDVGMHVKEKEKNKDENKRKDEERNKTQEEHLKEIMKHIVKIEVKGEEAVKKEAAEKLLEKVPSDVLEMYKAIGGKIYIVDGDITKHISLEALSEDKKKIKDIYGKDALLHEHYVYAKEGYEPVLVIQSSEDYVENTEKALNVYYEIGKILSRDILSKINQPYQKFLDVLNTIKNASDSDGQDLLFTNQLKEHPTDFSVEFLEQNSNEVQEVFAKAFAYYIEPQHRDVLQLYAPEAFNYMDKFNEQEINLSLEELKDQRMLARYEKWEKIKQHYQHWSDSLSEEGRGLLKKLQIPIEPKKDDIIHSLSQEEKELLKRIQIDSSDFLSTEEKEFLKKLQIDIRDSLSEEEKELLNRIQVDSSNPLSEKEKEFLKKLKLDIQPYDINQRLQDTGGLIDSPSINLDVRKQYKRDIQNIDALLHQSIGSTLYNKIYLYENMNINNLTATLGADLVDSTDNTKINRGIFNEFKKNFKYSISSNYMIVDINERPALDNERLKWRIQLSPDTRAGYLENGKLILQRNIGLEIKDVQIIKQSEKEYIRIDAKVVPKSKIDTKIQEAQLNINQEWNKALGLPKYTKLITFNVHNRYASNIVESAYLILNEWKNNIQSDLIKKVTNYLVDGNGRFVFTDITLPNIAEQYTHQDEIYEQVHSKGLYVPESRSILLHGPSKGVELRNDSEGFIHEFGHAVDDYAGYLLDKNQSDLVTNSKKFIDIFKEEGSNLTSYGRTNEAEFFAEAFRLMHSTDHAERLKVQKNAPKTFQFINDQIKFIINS

[14] = molecular target: T9, furin (Mus musculus, UniProt P23188); format: cell-based
T9 construct: endogenous in cells; host or cells: RAW264.7
T9 sequence (P23188 108-793): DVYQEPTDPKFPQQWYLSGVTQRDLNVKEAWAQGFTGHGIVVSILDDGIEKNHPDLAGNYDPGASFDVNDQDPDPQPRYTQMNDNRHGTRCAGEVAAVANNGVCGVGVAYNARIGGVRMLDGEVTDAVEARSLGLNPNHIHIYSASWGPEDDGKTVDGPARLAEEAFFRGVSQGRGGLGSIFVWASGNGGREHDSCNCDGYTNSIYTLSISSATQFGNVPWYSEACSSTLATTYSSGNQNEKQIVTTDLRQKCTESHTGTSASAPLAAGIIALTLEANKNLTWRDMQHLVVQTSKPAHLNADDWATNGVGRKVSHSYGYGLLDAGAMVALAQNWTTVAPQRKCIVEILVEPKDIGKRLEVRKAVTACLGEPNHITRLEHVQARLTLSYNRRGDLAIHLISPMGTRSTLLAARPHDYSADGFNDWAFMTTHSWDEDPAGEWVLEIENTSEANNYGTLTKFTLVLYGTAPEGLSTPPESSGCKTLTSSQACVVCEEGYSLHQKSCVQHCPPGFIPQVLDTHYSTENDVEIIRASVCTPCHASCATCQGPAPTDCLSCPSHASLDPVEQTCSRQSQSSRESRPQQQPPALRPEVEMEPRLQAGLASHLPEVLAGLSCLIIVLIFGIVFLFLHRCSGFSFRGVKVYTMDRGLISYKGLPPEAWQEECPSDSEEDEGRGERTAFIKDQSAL

[15] = molecular target: T10, cathepsin-B (Mus musculus, UniProt P10605); format: cell-based
T10 construct: Cathepsin B and caspase-1 activities in total cell lysates were determined; endogenous in cells; host or cells: RAW264.7
T10 sequence (P10605 80-333): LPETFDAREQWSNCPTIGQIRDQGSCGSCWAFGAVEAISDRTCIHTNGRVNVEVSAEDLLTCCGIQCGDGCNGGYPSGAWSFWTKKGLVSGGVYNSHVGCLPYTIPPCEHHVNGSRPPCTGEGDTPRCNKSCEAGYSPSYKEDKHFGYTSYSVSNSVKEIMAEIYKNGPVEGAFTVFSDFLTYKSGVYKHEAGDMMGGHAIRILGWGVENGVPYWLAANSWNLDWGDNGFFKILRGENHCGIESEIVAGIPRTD

[16] = system: botulinum neurotoxin serotype A complex (BoNT/A); design: species or system Swiss Webster (CFW) mice; conditions: mouse, in vivo
[17] = molecular target: BoNT/A light chain (Clostridium botulinum, UniProt P0DPI0); format: biochemical
BoNT/A light chain, sequence (P0DPI0 2-448 limits assumed): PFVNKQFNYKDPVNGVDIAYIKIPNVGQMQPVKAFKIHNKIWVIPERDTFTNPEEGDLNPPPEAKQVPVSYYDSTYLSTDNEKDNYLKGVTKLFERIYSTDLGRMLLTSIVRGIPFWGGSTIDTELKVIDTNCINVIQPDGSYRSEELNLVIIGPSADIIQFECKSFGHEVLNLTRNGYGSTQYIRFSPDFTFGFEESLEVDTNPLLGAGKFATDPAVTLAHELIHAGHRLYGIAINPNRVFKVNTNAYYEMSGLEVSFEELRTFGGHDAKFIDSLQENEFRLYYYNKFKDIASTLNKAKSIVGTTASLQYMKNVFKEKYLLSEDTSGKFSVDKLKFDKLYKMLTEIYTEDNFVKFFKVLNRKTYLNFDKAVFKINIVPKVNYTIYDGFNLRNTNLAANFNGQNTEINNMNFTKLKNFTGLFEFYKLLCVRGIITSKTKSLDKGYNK

[18] = system: Puerto Rico ZIKV; assay: Zika virus high content imaging infection assay, Puerto Rico strain PRVABC59 in Vero E6 cells; format: cell-based; conditions: Vero C1008, 2 hours pretreatment, MOI 0.5, 48 hours, read-out: EC50 for inhibition of abundance of Puerto Rico ZIKV in Vero E6 cells
[19] = system: Senegal ZIKV; assay: Zika virus high content imaging infection assay, Senegal strain DAK AR D 41525 in Vero E6 cells; format: cell-based; conditions: Vero C1008, 2 hours pretreatment, MOI 0.5, 48 hours, read-out: EC50 for inhibition of abundance of Senegal ZIKV in Vero E6 cells
[20] = system: Senegal ZIKV; assay: Zika virus high content imaging infection assay, Senegal strain DAK AR D 41525 in human astrocytes; format: cell-based; conditions: Astrocyte, 2 hours pretreatment, MOI 15, 48 hours, read-out: EC50 for inhibition of abundance of Senegal ZIKV in human astrocytes
[21] = system: Diphtheria toxin-mediated cytotoxicity in C32 cells; assay: cells; conditions: Homo sapiens, C32, read-out: EC50 for reduction of diphtheria toxin-mediated cytotoxicity
[22] = system: cholera toxin-mediated cytotoxicity in RAW264.7 cells; assay: cells; conditions: Mus musculus, RAW264.7, read-out: EC50 for reduction of cholera toxin-mediated cytotoxicity
[23] = system: Pseudomonas aeruginosa exotoxin A (PE)-mediated cytotoxicity in RAW264.7 cells; assay: cells; conditions: Mus musculus, RAW264.7, read-out: EC50 for reduction of Pseudomonas toxin-mediated cytotoxicity
[24] = system: Diphtheria toxin-mediated cytotoxicity in C32 cells
[25] = system: cholera toxin-mediated cytotoxicity in RAW264.7 cells
[26] = system: Pseudomonas aeruginosa exotoxin A (PE)-mediated cytotoxicity in RAW264.7 cells

T1 sequence (P70677 29-175 limits assumed): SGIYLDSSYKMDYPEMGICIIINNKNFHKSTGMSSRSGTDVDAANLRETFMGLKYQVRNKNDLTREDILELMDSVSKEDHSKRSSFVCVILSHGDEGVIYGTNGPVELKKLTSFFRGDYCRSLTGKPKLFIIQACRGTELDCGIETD
T1 sequence (P70677 176-277 limits assumed): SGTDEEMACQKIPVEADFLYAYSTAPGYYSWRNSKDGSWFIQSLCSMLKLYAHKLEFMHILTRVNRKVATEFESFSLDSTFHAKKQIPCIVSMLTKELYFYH

## Oc1c(Cl)cc(Cl)cc1Sc1cc(Cl)cc(Cl)c1O [Bithionol]
[1]
  IC50: 21 µM
[1]; 33 μM
  CCL FRET screen hit: reduction of proteolysis of caspase-3 substrate: capable of prominently reducing the proteolysis of all three caspase substrates
[2]
  IC50: 13 µM
[2]; 33 μM
  CCL FRET screen hit: reduction of proteolysis of caspase-6 substrate: capable of prominently reducing the proteolysis of all three caspase substrates
[3]; 33 μM
  CCL FRET screen hit: reduction of proteolysis of caspase-3/7 substrate: capable of prominently reducing the proteolysis of all three caspase substrates
[3]; read-out: IC50 for inhibition of proteolytic cleavage of caspase-3/7 substrate
  IC50: 11 µM
[4]
  Reduction of cellular sensitivity to PE in PE-sensitive HapMap cells: protected three cell lines
[5]
  Inhibition of purified recombinant human caspase-1 activity: inhibited activities
[6]
  Inhibition of purified recombinant human caspase-9 activity: inhibited activities
[7]
  Inhibition of purified recombinant human caspase-3 activity: inhibited activities
[8]
  Inhibition of purified recombinant human caspase-6 activity: inhibited activities
[9]
  Inhibition of purified recombinant human caspase-7 activity: inhibited activities
[10]
  Inhibition of other purified recombinant human caspases: no inhibitory effects
[11]
  Protection against LF-PA-mediated cell killing: substantial protection
[12]
  Caspase-1 induction upon LF-PA treatment: caspase-1 induction was not detected
[13]
  Inhibition of proteolytic activity of cellular LF (MAPKK2 proteolysis): does not block proteolysis; also recorded: does not inhibit
[14]
  Inhibition of proteolytic activity of cellular furin: does not inhibit
[15]
  Inhibition of proteolytic activity of cellular cathepsin-B: does not inhibit
[16]
  Survival of mice challenged with lethal oral dose of BoNT/A complex: all of the mice
  Toxin-associated symptoms (wasp waist, paralysis) in BoNT/A challenged mice: without displaying toxin-associated symptoms
[17]
  Effect on proteolysis rate of fluorescent SNAP-25 substrate by BoNT/A: did not affect the proteolysis rate
[18]
  EC50: 6.7 µM
[19]
  EC50: 5.5 µM
[20]
  EC50: 6.3 µM
[21]
  EC50: 10 µM
[22]
  EC50: 10 µM
[23]
  EC50: 10 µM

## Oc1cccc(O)c1O [Pyrogallol]
[24]
  CCL cellular screen hit: reduction of diphtheria toxin cytotoxicity: capable of reducing the cytotoxicities of all three toxins
[25]
  CCL cellular screen hit: reduction of cholera toxin cytotoxicity: capable of reducing the cytotoxicities of all three toxins
[26]
  CCL cellular screen hit: reduction of PE cytotoxicity: capable of reducing the cytotoxicities of all three toxins
